Data as given in PubChem BioAssay AID1745844 (Carcinogenic Potency Database (CPDB), 2022).
Several values for one entry are separate records, joined by “and”; a condition that tells them apart may be missing. Equal entries are not always repeated. Activity calls are given as the source filed them. The rule behind the calls is not given here.

Tested on: rodent lifetime carcinogenesis bioassay, tumor incidence TD50
Test: chronic cancer bioassays in animals – CPDB, compiled studies (AID 1745844)

O=S1(=O)CCCO1
TD50 (rat, strain Charles River CD (Sprague-Dawley), females, by gavage, site: all sites, lesion: granulocytic leukemia, dosed 46 weeks, study length 60 weeks): 18.6 mg/kg/day
TD50 (rat, strain Charles River CD (Sprague-Dawley), females, by gavage, site: cerebellum, lesion: malignant glioma, dosed 46 weeks, study length 60 weeks): 7.2 mg/kg/day
TD50 (rat, strain Charles River CD (Sprague-Dawley), females, by gavage, site: cerebrum, lesion: malignant glioma, dosed 46 weeks, study length 60 weeks): 4.06 mg/kg/day
TD50 (rat, strain Charles River CD (Sprague-Dawley), females, by gavage, site: mammary gland, lesion: adenocarcinoma, dosed 46 weeks, study length 60 weeks): 4.13 mg/kg/day
TD50 (rat, strain Charles River CD (Sprague-Dawley), females, by gavage, site: small intestine, lesion: adenocarcinoma, dosed 46 weeks, study length 60 weeks): 31.7 mg/kg/day
TD50 (rat, strain Charles River CD (Sprague-Dawley), males, by gavage, site: all sites, lesion: granulocytic leukemia, dosed 46 weeks, study length 60 weeks): 23.5 mg/kg/day
TD50 (rat, strain Charles River CD (Sprague-Dawley), males, by gavage, site: cerebellum, lesion: malignant glioma, dosed 46 weeks, study length 60 weeks): 4.75 mg/kg/day
TD50 (rat, strain Charles River CD (Sprague-Dawley), males, by gavage, site: cerebrum, lesion: malignant glioma, dosed 46 weeks, study length 60 weeks): 3.64 mg/kg/day
TD50 (rat, strain Charles River CD (Sprague-Dawley), males, by gavage, site: small intestine, lesion: adenocarcinoma, dosed 46 weeks, study length 60 weeks): 15.4 mg/kg/day

C=Cc1ccccc1
TD50 (mouse, strain B6C3F1, females, by gavage, site: any site (literature study), lesion: several types, types named in the paper, dosed 78 weeks, study length 91 weeks): 625 mg/kg/day
TD50 (mouse, strain B6C3F1, females, by gavage, site: liver, lesion: hepatocellular adenoma + hepatocellular carcinoma + neoplastic nodule, dosed 78 weeks, study length 91 weeks): 905 mg/kg/day
TD50 (mouse, strain B6C3F1, females, by gavage, site: liver, lesion: hepatocellular adenoma, dosed 78 weeks, study length 91 weeks): 905 mg/kg/day (inactive)
TD50 (mouse, strain B6C3F1, females, by gavage, site: lung, lesion: alveolar/bronchiolar adenoma + alveolar/bronchiolar carcinoma, dosed 78 weeks, study length 91 weeks): 1380 mg/kg/day
TD50 (mouse, strain B6C3F1, males, by gavage, site: any site (literature study), lesion: several types, types named in the paper, dosed 78 weeks, study length 91 weeks): 659 mg/kg/day
TD50 (mouse, strain B6C3F1, males, by gavage, site: liver, lesion: hepatocellular adenoma + hepatocellular carcinoma + neoplastic nodule, dosed 78 weeks, study length 91 weeks): 895 mg/kg/day
TD50 (mouse, strain B6C3F1, males, by gavage, site: lung, lesion: alveolar/bronchiolar adenoma + alveolar/bronchiolar carcinoma, dosed 78 weeks, study length 91 weeks): 360 mg/kg/day
TD50 (mouse, strain Charles River CD1, females, inhaled, site: any site (literature study), lesion: several types, types named in the paper, dosed 98 weeks, study length 98 weeks): 400 mg/kg/day
TD50 (mouse, strain Charles River CD1, females, inhaled, site: liver, lesion: several types, types named in the paper, dosed 98 weeks, study length 98 weeks): 13600 mg/kg/day
TD50 (mouse, strain Charles River CD1, females, inhaled, site: lung, lesion: alveolar/bronchiolar adenoma, dosed 98 weeks, study length 98 weeks): 331 mg/kg/day
TD50 (mouse, strain Charles River CD1, females, inhaled, site: lung, lesion: alveolar/bronchiolar carcinoma, dosed 98 weeks, study length 98 weeks): 1300 mg/kg/day
TD50 (mouse, strain Charles River CD1, males, inhaled, site: any site (literature study), lesion: several types, types named in the paper, dosed 104 weeks, study length 105 weeks): 209 mg/kg/day
TD50 (mouse, strain Charles River CD1, males, inhaled, site: liver, lesion: hepatocellular carcinoma, dosed 104 weeks, study length 105 weeks): 2860 mg/kg/day
TD50 (mouse, strain Charles River CD1, males, inhaled, site: lung, lesion: alveolar/bronchiolar adenoma, dosed 78 weeks, study length 78 weeks): 465 mg/kg/day
TD50 (mouse, strain Charles River CD1, males, inhaled, site: lung, lesion: alveolar/bronchiolar adenoma, dosed 104 weeks, study length 105 weeks): 154 mg/kg/day
TD50 (mouse, strain Charles River CD1, males, inhaled, site: lung, lesion: alveolar/bronchiolar carcinoma, dosed 104 weeks, study length 105 weeks): 1770 mg/kg/day
TD50 (rat, strain Charles River CD (Sprague-Dawley), females, inhaled, site: liver, lesion: hepatocellular adenoma, dosed 104 weeks, study length 106 weeks): 12200 mg/kg/day (inactive)
carcinogen call (rat, strain Charles River CD (Sprague-Dawley), females, inhaled, site: liver, lesion: one or several types, types not named, dosed 52 weeks, study length 52 weeks): negative (inactive)
carcinogen call (rat, strain Charles River CD (Sprague-Dawley), males, inhaled, site: liver, lesion: one or several types, types not named, dosed 52 weeks, study length 52 weeks): negative (inactive)
TD50 (rat, strain Charles River CD (Sprague-Dawley), males, inhaled, site: liver, lesion: several types, types named in the paper, dosed 104 weeks, study length 106 weeks): 9930 mg/kg/day (inactive)
carcinogen call (rat, strain Fischer 344, females, by gavage, site: any site (literature study), lesion: several types, types named in the paper, dosed 90 weeks, study length 97 weeks): negative (inactive)
TD50 (rat, strain Fischer 344, females, by gavage, site: liver, lesion: hepatocellular adenoma + hepatocellular carcinoma + neoplastic nodule, dosed 90 weeks, study length 97 weeks): 25200 mg/kg/day
TD50 (rat, strain Fischer 344, males, by gavage, site: any site (literature study), lesion: several types, types named in the paper, dosed 90 weeks, study length 97 weeks): 3410 mg/kg/day (inactive)
TD50 (rat, strain Sprague-Dawley, females, by gavage, site: any site (literature study), lesion: several types, types named in the paper, dosed 52 weeks, study length 104 weeks): 12 mg/kg/day
TD50 (rat, strain Sprague-Dawley, females, inhaled, site: any site (literature study), lesion: malignant tumor, dosed 52 weeks, study length 104 weeks): 205 mg/kg/day
TD50 (rat, strain Sprague-Dawley, females, inhaled, site: any site (literature study), lesion: several types, types named in the paper, dosed 52 weeks, study length 104 weeks): 48.7 mg/kg/day
TD50 (rat, strain Sprague-Dawley, females, inhaled, site: mammary tissue, wider than the gland, lesion: malignant tumor, dosed 52 weeks, study length 104 weeks): 57.1 mg/kg/day
TD50 (rat, strain Sprague-Dawley, females, inhaled, site: mammary tissue, wider than the gland, lesion: several types, types named in the paper, dosed 52 weeks, study length 104 weeks): 23.3 mg/kg/day
TD50 (rat, strain Sprague-Dawley, males, by gavage, site: any site (literature study), lesion: malignant tumor, dosed 52 weeks, study length 104 weeks): 1090 mg/kg/day
TD50 (rat, strain Sprague-Dawley, males, by gavage, site: any site (literature study), lesion: several types, types named in the paper, dosed 52 weeks, study length 104 weeks): 1220 mg/kg/day
TD50 (rat, strain Sprague-Dawley, males, inhaled, site: any site (literature study), lesion: several types, types named in the paper, dosed 52 weeks, study length 104 weeks): 107 mg/kg/day

OC[C@H]1O[C@@H]2O[C@H]3[C@H](O)[C@@H](O)[C@@H](O[C@H]4[C@H](O)[C@@H](O)[C@@H](O[C@H]5[C@H](O)[C@@H](O)[C@@H](O[C@H]6[C@H](O)[C@@H](O)[C@@H](O[C@H]7[C@H](O)[C@@H](O)[C@@H](O[C@H]8[C@H](O)[C@@H](O)[C@@H](O[C@H]1[C@H](O)[C@H]2O)O[C@@H]8CO)O[C@@H]7CO)O[C@@H]6CO)O[C@@H]5CO)O[C@@H]4CO)O[C@@H]3CO
carcinogen call (mouse, strain Charles River CD1, females, in feed, site: lung, lesion: several types, types named in the paper, dosed 104 weeks, study length 104 weeks): negative (inactive)
TD50 (mouse, strain Charles River CD1, males, in feed, site: lung, lesion: several types, types named in the paper, dosed 93 weeks, study length 93 weeks): 728 mg/kg/day (inactive)
carcinogen call (rat, strain Charles River CD (Sprague-Dawley), females, in feed, site: liver, lesion: one or several types, types not named, dosed 52 weeks, study length 52 weeks): negative (inactive)
carcinogen call (rat, strain Charles River CD (Sprague-Dawley), males, in feed, site: liver, lesion: one or several types, types not named, dosed 52 weeks, study length 52 weeks): negative (inactive)
TD50 (rat, strain F344/DuCrj, females, in feed, site: any site (literature study), lesion: several types, types named in the paper, dosed 104 weeks, study length 109 weeks): 85900 mg/kg/day (inactive)
carcinogen call (rat, strain F344/DuCrj, females, in feed, site: liver, lesion: hepatocellular adenoma, dosed 104 weeks, study length 109 weeks): negative (inactive)
carcinogen call (rat, strain F344/DuCrj, males, in feed, site: any site (literature study), lesion: several types, types named in the paper, dosed 104 weeks, study length 109 weeks): negative (inactive)
carcinogen call (rat, strain F344/DuCrj, males, in feed, site: liver, lesion: hepatocellular adenoma, dosed 104 weeks, study length 109 weeks): negative (inactive)
TD50 (rat, strain Fischer 344, females, in feed, site: uterus, lesion: adenocarcinoma, dosed 129 weeks, study length 129 weeks): 22700 mg/kg/day (inactive)
TD50 (rat, strain Fischer 344, males, in feed, site: testis, lesion: interstitial-cell tumor, dosed 122 weeks, study length 122 weeks): 157 mg/kg/day (inactive)

COP(=O)(OC)OC(=CCl)c1cc(Cl)c(Cl)cc1Cl
TD50 (mouse, strain B6C3F1, females, in feed, site: any site (literature study), lesion: several types, types named in the paper, dosed 80 weeks, study length 92 weeks): 7880 mg/kg/day
TD50 (mouse, strain B6C3F1, females, in feed, site: kidney, lesion: several types, types named in the paper, dosed 103 weeks, study length 103 weeks): 32100 mg/kg/day
TD50 (mouse, strain B6C3F1, females, in feed, site: liver, lesion: hepatocellular adenoma + hepatocellular carcinoma + neoplastic nodule, dosed 80 weeks, study length 92 weeks): 905 mg/kg/day
TD50 (mouse, strain B6C3F1, females, in feed, site: liver, lesion: hepatocellular carcinoma + neoplastic nodule, dosed 80 weeks, study length 90 weeks): 1070 mg/kg/day
TD50 (mouse, strain B6C3F1, females, in feed, site: liver, lesion: hepatocellular carcinoma + neoplastic nodule, dosed 80 weeks, study length 92 weeks): 905 mg/kg/day
TD50 (mouse, strain B6C3F1, females, in feed, site: liver, lesion: hepatocellular carcinoma, dosed 103 weeks, study length 103 weeks): 12400 mg/kg/day and 8990 mg/kg/day
TD50 (mouse, strain B6C3F1, females, in feed, site: liver, lesion: neoplastic nodule, dosed 80 weeks, study length 90 weeks): 1380 mg/kg/day
TD50 (mouse, strain B6C3F1, females, in feed, site: liver, lesion: several types, types named in the paper, dosed 103 weeks, study length 103 weeks): 10200 mg/kg/day and 6330 mg/kg/day
TD50 (mouse, strain B6C3F1, females, in feed, site: lung, lesion: alveolar/bronchiolar adenoma + alveolar/bronchiolar carcinoma, dosed 80 weeks, study length 92 weeks): 7790 mg/kg/day
TD50 (mouse, strain B6C3F1, males, in feed, site: any site (literature study), lesion: several types, types named in the paper, dosed 80 weeks, study length 92 weeks): 295 mg/kg/day
TD50 (mouse, strain B6C3F1, males, in feed, site: kidney, lesion: several types, types named in the paper, dosed 103 weeks, study length 103 weeks): 4420 mg/kg/day
TD50 (mouse, strain B6C3F1, males, in feed, site: kidney, lesion: tubular adenoma, dosed 103 weeks, study length 103 weeks): 37600 mg/kg/day
TD50 (mouse, strain B6C3F1, males, in feed, site: kidney, lesion: tubular carcinoma, dosed 103 weeks, study length 103 weeks): 5260 mg/kg/day
TD50 (mouse, strain B6C3F1, males, in feed, site: liver, lesion: hepatocellular adenoma + hepatocellular carcinoma + neoplastic nodule, dosed 80 weeks, study length 92 weeks): 228 mg/kg/day
TD50 (mouse, strain B6C3F1, males, in feed, site: liver, lesion: hepatocellular adenoma, dosed 103 weeks, study length 103 weeks): 18300 mg/kg/day
TD50 (mouse, strain B6C3F1, males, in feed, site: liver, lesion: hepatocellular carcinoma + neoplastic nodule, dosed 80 weeks, study length 90 weeks): 280 mg/kg/day
TD50 (mouse, strain B6C3F1, males, in feed, site: liver, lesion: hepatocellular carcinoma + neoplastic nodule, dosed 80 weeks, study length 92 weeks): 228 mg/kg/day
TD50 (mouse, strain B6C3F1, males, in feed, site: liver, lesion: hepatocellular carcinoma, dosed 80 weeks, study length 90 weeks): 534 mg/kg/day
TD50 (mouse, strain B6C3F1, males, in feed, site: liver, lesion: hepatocellular carcinoma, dosed 80 weeks, study length 92 weeks): 466 mg/kg/day
TD50 (mouse, strain B6C3F1, males, in feed, site: liver, lesion: hepatocellular carcinoma, dosed 103 weeks, study length 103 weeks): 1530 mg/kg/day
TD50 (mouse, strain B6C3F1, males, in feed, site: liver, lesion: neoplastic nodule, dosed 80 weeks, study length 90 weeks): 1770 mg/kg/day
TD50 (mouse, strain B6C3F1, males, in feed, site: liver, lesion: several types, types named in the paper, dosed 103 weeks, study length 103 weeks): 1150 mg/kg/day
TD50 (mouse, strain B6C3F1, males, in feed, site: lung, lesion: alveolar/bronchiolar adenoma + alveolar/bronchiolar carcinoma, dosed 80 weeks, study length 92 weeks): 401000 mg/kg/day
TD50 (rat, strain Osborne-Mendel, females, in feed, site: adrenal gland, lesion: cortical adenoma, dosed 80 weeks, study length 109 weeks): 2280 mg/kg/day
TD50 (rat, strain Osborne-Mendel, females, in feed, site: pituitary gland, lesion: chromophobe adenoma, dosed 80 weeks, study length 111 weeks): 1580 mg/kg/day (inactive)
TD50 (rat, strain Osborne-Mendel, females, in feed, site: thyroid gland, lesion: c-cell adenoma, dosed 80 weeks, study length 109 weeks): 1920 mg/kg/day
carcinogen call (rat, strain Osborne-Mendel, males, in feed, site: any site (literature study), lesion: several types, types named in the paper, dosed 80 weeks, study length 111 weeks): negative (inactive)
